Reference: patent publication US20230407243A1, “GENETIC PLATFORM TO INVESTIGATE THE FUNCTIONS OF BACTERIAL DRUG EFFLUX PUMPS” (priority 2022, published 2023)
Where two headings read alike, the source gives them in different places.

Legend:
Type in all cases: cell-based, Escherichia coli
EKO-35-Pore = experiment: MIC susceptibility profiling, porinated strain; conditions: for Fold changes of MICs: EKO-35-Pore compared to EKO-35-Pore (reference); for MIC: Escherichia coli, technical duplicate
Summary of the method: (§1)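 Strains carry the fhuA ΔC/Δ4L pore integrated between glmS and pstS under a constitutive promoter, with pore activity checked by vancomycin susceptibility. Overnight LB cultures were adjusted in PBS pH 7.4 to OD600 ~1.0 and diluted 1/2000 into MHB II. 2-fold compound titrations were read by OD600 after 18 h at 37 °C.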

wild-type (WT) K-12-Pore = experiment: microbe, parasite or virus in culture; conditions: Escherichia coli, technical duplicate
Summary of the method: as §1

ΔtolC-Pore = experiment: microbe, parasite or virus in culture; conditions: for MIC: Escherichia coli, 18 h, read-out: Minimum inhibitory concentration, ΔtolC-Pore; for Minimum inhibitory concentration (MIC), Pore ΔtolC: Table 10, with pore, technical duplicate
Summary of the method: as §1

EKO-35 araC::acrEF Pore = experiment: MIC susceptibility profiling, porinated efflux platform; conditions: for Fold changes of MICs: EKO-35 araC::acrEF Pore compared to EKO-35-Pore
Summary of the method: as §1

EKO-35 araC::mdtEF Pore = experiment: as above; conditions: for Fold changes of MICs: EKO-35 araC::mdtEF Pore compared to EKO-35-Pore
Summary of the method: as §1

EKO-35 araC::acrD Pore = experiment: as above; conditions: for Fold changes of MICs: EKO-35 araC::acrD Pore compared to EKO-35-Pore; for MIC: Escherichia coli, Table 14A, porinated, technical duplicate, read-out: Minimum inhibitory concentration, EKO-35 araC::acrD Pore
Summary of the method: as §1

EKO-35 araC::macAB Pore = experiment: as above; conditions: for Fold changes of MICs: EKO-35 araC::macAB Pore compared to EKO-35-Pore; for MIC: Escherichia coli, EKO-35 araC::macAB Pore, technical duplicate, read-out: Minimum inhibitory concentration
Summary of the method: as §1

EKO-35 araC::mdtBC Pore = experiment: as above; conditions: for Fold changes of MICs: EKO-35 araC::mdtBC Pore compared to EKO-35-Pore; for MIC: Escherichia coli, EKO-35 araC::mdtBC Pore, technical duplicate, read-out: Minimum inhibitory concentration
Summary of the method: as §1

EKO-35 araC::emrAB Pore = experiment: as above; conditions: for Fold changes of MICs: EKO-35 araC::emrAB Pore compared to EKO-35-Pore; for MIC: Escherichia coli, EKO-35 araC::emrAB Pore, technical duplicate, read-out: Minimum inhibitory concentration
Summary of the method: as §1

EKO-35 araC::emrKY Pore = experiment: as above; conditions: for Fold changes of MICs: EKO-35 araC::emrKY Pore compared to EKO-35-Pore; for MIC: Escherichia coli, EKO-35 araC::emrKY Pore, technical duplicate, read-out: Minimum inhibitory concentration
Summary of the method: as §1

EKO-35 araC::acrB Pore = experiment: as above; conditions: for Fold changes of MICs: EKO-35 araC::acr-B Pore compared to EKO-35-Pore; for MIC: Escherichia coli, Table 14A, porinated, technical duplicate, read-out: Minimum inhibitory concentration, EKO-35 araC::acrB Pore
Summary of the method: as §1

EKO-35 araC::mexCD Pore = experiment: as above; conditions: for Fold changes of MICs: EKO-35 araC::mexCD Pore compared to EKO-35-Pore; for MIC: Escherichia coli, EKO-35 araC::mexCD Pore, technical duplicate, read-out: Minimum inhibitory concentration
Summary of the method: as §1

[1] = tested on: EKO-35 araC::acrBD408A Pore; experiment: as above; conditions: for Fold changes of MICs: EKO-35 araC::acrBD408A Pore compared to EKO-35-Pore; for MIC: Escherichia coli, EKO-35 araC::acrBD408A Pore, technical duplicate, read-out: Minimum inhibitory concentration
Summary of the method: as §1

E. coli EKO-35 = experiment: microbe, parasite or virus in culture; conditions: for Fold change of MICs: EKO-35 compared to EKO-35 (reference); for MIC: Escherichia coli, EKO35, technical duplicate
Summary of the method: (§2)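 Overnight LB cultures (37 °C, 18 h) were resuspended in PBS pH 7.4 to OD600 ~1.0 and diluted 1/2000 into MHB II. Strains were exposed to 2-fold serial compound dilutions in duplicate for 18 h at 37 °C with shaking. MIC was read from OD600 after subtracting pre-incubation background.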

E. coli ΔtolC = experiment: microbe, parasite or virus in culture; conditions: for MIC: Escherichia coli, 18 h, read-out: Minimum Inhibitory Concentration, ΔtolC; for Minimum inhibitory concentration (MIC), ΔtolC: Table 10, without pore, technical duplicate
Summary of the method: as §2

[2] = tested on: wild-type E. coli K-12 str. BW25113; experiment: microbe, parasite or virus in culture; conditions: Escherichia coli, BW25113, technical duplicate
Summary of the method: as §2

EKO-35 araC::mdtEF = experiment: MIC susceptibility profiling, efflux platform; conditions: for Fold change of MICs: EKO-35 araC::mdtEF compared to EKO-35; for MIC: Escherichia coli, Table 13A, non-porinated, technical duplicate, read-out: Minimum Inhibitory Concentration, EKO-35 araC::mdtEF
Summary of the method: as §2

EKO-35 araC::mdtBC = experiment: MIC susceptibility profiling, efflux platform; conditions: for Fold change of MICs: EKO-35 araC::mdtBC compared to EKO-35; for MIC: Escherichia coli, Table 13B, non-porinated, technical duplicate, read-out: Minimum Inhibitory Concentration, EKO-35 araC::mdtBC
Summary of the method: as §2

[3] = Table 10, with pore, read-out: Minimum inhibitory concentration (MIC), Pore EKO-35
[4] = Table 14A, porinated, read-out: Minimum inhibitory concentration, EKO-35-Pore
[5] = Table 10, with pore, read-out: Minimum inhibitory concentration (MIC), Pore K-12
[6] = Table 14A, porinated, read-out: Minimum inhibitory concentration, K-12 (WT)-Pore
[7] = Table 10, without pore, read-out: Minimum inhibitory concentration (MIC), EKO-35
[8] = Table 13A, non-porinated, read-out: Minimum Inhibitory Concentration, EKO-35
[9] = Table 10, without pore, read-out: Minimum inhibitory concentration (MIC), K-12
[10] = Table 13A, non-porinated, read-out: Minimum Inhibitory Concentration, K-12

| SMILES | Fold changes of MICs (EKO-35-Pore) | MIC (wild-type (WT) K-12-Pore; [5]) | MIC (wild-type (WT) K-12-Pore; [6]) | MIC (ΔtolC-Pore) | Minimum inhibitory concentration (MIC), Pore ΔtolC (ΔtolC-Pore) | Fold changes of MICs (EKO-35 araC::acrEF Pore) | Fold changes of MICs (EKO-35 araC::mdtEF Pore) | Fold changes of MICs (EKO-35 araC::acrD Pore) | Fold changes of MICs (EKO-35 araC::macAB Pore) | Fold changes of MICs (EKO-35 araC::mdtBC Pore) | Fold changes of MICs (EKO-35 araC::emrAB Pore) | Fold changes of MICs (EKO-35 araC::emrKY Pore) | Fold changes of MICs (EKO-35 araC::acrB Pore) | Fold changes of MICs (EKO-35 araC::mexCD Pore) | Fold changes of MICs [1] | Fold change of MICs (E. coli EKO-35) | MIC (E. coli EKO-35; [7]) | MIC (E. coli EKO-35; [8]) | MIC (E. coli ΔtolC) | Minimum inhibitory concentration (MIC), ΔtolC (E. coli ΔtolC) | further results |
| --- | --- | --- | --- | --- | --- | --- | --- | --- | --- | --- | --- | --- | --- | --- | --- | --- | --- | --- | --- | --- | --- |
| [H]/N=C(\N/C(=N/[H])NCCCCCCNC(=N)NC(=N)Nc1ccc(Cl)cc1)Nc1ccc(Cl)cc1 [Chlorhexidine] | 1 fold | 0.781 µg/mL | 0.781 µg/mL | 0.391 µg/mL | 0.391 µg/mL | 1 fold | 1 fold | 1 fold | 1 fold | 1 fold | 1 fold | 1 fold | 1 fold | 1 fold | 1 fold | 1 fold | 0.391 µg/mL | 0.391 µg/mL | 0.391 µg/mL | 0.391 µg/mL | MIC (EKO-35-Pore; [3]): 0.391 µg/mL; MIC (EKO-35-Pore; [4]): 0.391 µg/mL; MIC (EKO-35 araC::acrEF Pore; Escherichia coli, Table 14A, porinated, technical duplicate, read-out: Minimum inhibitory concentration, EKO-35 araC::acrEF Pore): 0.391 µg/mL; MIC (EKO-35 araC::mdtEF Pore; Escherichia coli, Table 14A, porinated, technical duplicate, read-out: Minimum inhibitory concentration, EKO-35 araC::mdtEF Pore): 0.391 µg/mL; MIC (EKO-35 araC::acrD Pore): 0.391 µg/mL; MIC (EKO-35 araC::macAB Pore): 0.391 µg/mL; MIC (EKO-35 araC::mdtBC Pore): 0.391 µg/mL; MIC (EKO-35 araC::emrAB Pore): 0.391 µg/mL; MIC (EKO-35 araC::emrKY Pore): 0.391 µg/mL; MIC (EKO-35 araC::acrB Pore): 0.391 µg/mL; MIC (EKO-35 araC::mexCD Pore): 0.391 µg/mL; MIC [1]: 0.391 µg/mL; MIC [2, 9]: 0.781 µg/mL; MIC [2, 10]: 0.781 µg/mL; Fold change of MICs (EKO-35 araC::mdtEF): 1 fold; MIC (EKO-35 araC::mdtEF): 0.391 µg/mL; Fold change of MICs (EKO-35 araC::mdtBC): 1 fold; MIC (EKO-35 araC::mdtBC): 0.391 µg/mL |
| CCCCCCCCCCCCOS(=O)(=O)[O-].[Na+] [SDS, sodium dodecyl sulphate] | 1 fold | 1000 µg/mL | 1000 µg/mL | 15.6 µg/mL | 15.625 µg/mL | 32 fold | 32 fold | 32 fold | 1 fold | 1 fold | 4 fold | 1 fold | 32 fold | 4 fold | 1 fold | 1 fold | 31.2 µg/mL | 31.2 µg/mL | 15.6 µg/mL | 15.625 µg/mL | MIC (EKO-35-Pore; [3]): 31.2 µg/mL; MIC (EKO-35-Pore; [4]): 31.2 µg/mL; MIC (EKO-35 araC::macAB Pore): 31.2 µg/mL; MIC (EKO-35 araC::mdtBC Pore): 31.2 µg/mL; MIC (EKO-35 araC::emrAB Pore): 125 µg/mL; MIC (EKO-35 araC::emrKY Pore): 31.2 µg/mL; MIC (EKO-35 araC::mexCD Pore): 125 µg/mL; MIC [1]: 31.2 µg/mL; MIC [2, 9]: 1000 µg/mL; MIC [2, 10]: 1000 µg/mL; Fold change of MICs (EKO-35 araC::mdtEF): 32 fold; Fold change of MICs (EKO-35 araC::mdtBC): 2 fold; MIC (EKO-35 araC::mdtBC): 62.5 µg/mL |
| CN[C@@H]1[C@H](O)[C@H](NC)[C@H]2O[C@@]3(O)C(=O)C[C@@H](C)O[C@H]3O[C@@H]2[C@H]1O [Spectinomycin] | 1 fold | 12.5 µg/mL | 12.5 µg/mL | 6.25 µg/mL | 6.25 µg/mL | 1 fold | 1 fold | 2 fold | 1 fold | 1 fold | 1 fold | 1 fold | 2 fold | 1 fold | 1 fold | 1 fold | 25 µg/mL | 25 µg/mL | 6.25 µg/mL | 6.25 µg/mL | MIC (EKO-35 araC::acrD Pore): 25 µg/mL; MIC (EKO-35 araC::acrB Pore): 25 µg/mL; MIC [2, 9]: 25 µg/mL; MIC [2, 10]: 25 µg/mL; Fold change of MICs (EKO-35 araC::mdtEF): 1 fold; MIC (EKO-35 araC::mdtEF): 25 µg/mL; Fold change of MICs (EKO-35 araC::mdtBC): 1 fold; MIC (EKO-35 araC::mdtBC): 25 µg/mL |
